Measured values published in US6350917B1, “α-crystal of cyclopentenone” (Takara Shuzo Co., Ltd., priority 1997, dated 2002).

Assay: Thermostability: quantitative determination of the cyclopentenone (UV absorbance near 215 nm) initially and after standing at 40° C. for six days
Assay type: physicochemical
Settings: for Amount of the Cyclopentenone (%) After Standing at 40° C. for six days / Amount of the Cyclopentenone (%) At Initial Stage: ratio of the cyclopentenone in the sample; for Amount of the Cyclopentenone (%) At Initial Stage: the rest being water and impurities
Description: In order to compare the thermostability of the freeze-dried cyclopentenone obtained in Referential Example 1 and that of the α-type crystals obtained in Example 1, quantitative determination was conducted for the cyclopentenone on the initial stage and after allowing to stand at 40° C. for six days by means of the following quantitative determination method.
Quantitative Determination Method: A sample (0.1 g) of the cyclopentenone is dissolved in 100 ml of water and 2 ml of the resulting solution are diluted to an extent of 50-fold. Absorbance (A) of this solution at the wave length of maximum absorption near the wave length of 215 nm is measured. Amount of the cyclopentenone (mg/ml) is calculated by the following formula.
Amount of the Cyclopentenone (mg/ml)=(A÷773.4)×50000

| Compound | Amount of the Cyclopentenone (%) After Standing at 40° C. for six days [%] | Amount of the Cyclopentenone (%) At Initial Stage [%] | Thermostability compared with the freeze-dried product (40° C. for six days, in words) |
| --- | --- | --- | --- |
| O=C1C=C[C@@H](O)[C@@H]1O (relative stereo) [Freeze-Dried Product, trans-4,5-dihydroxy-2-cyclopenten-1-one, reference compound] | 28.2 | 59.4 | – |
| O=C1C=C[C@@H](O)[C@@H]1O (relative stereo) [α-Type Crystals, trans-4,5-dihydroxy-2-cyclopenten-1-one] | 95.2 | 96.4 | significantly improved thermostability as compared with the freeze-dried product |
